Measured values as given in ChEMBL document CHEMBL3994622, “Design and synthesis of new RAF kinase-inhibiting antiproliferative quinoline derivatives. Part 2: Diarylurea derivatives” (Eur J Med Chem, 2017).

Columns and labels:
Assay type in all cases: functional
HT-29 [1] = test: Growth inhibition of human HT-29 cells assessed as cell growth at 100 uM incubated for 48 hrs by sulforhodamine B assay relative to control; details: HT-29, 48 h, read-out: Activity
HOP-92 [2] = test: Growth inhibition of human HOP92 cells assessed as cell growth at 1 uM incubated for 48 hrs by sulforhodamine B assay relative to control; details: HOP-92, 48 h, read-out: Activity
NCI-H460 [3] = test: Growth inhibition of human NCI-H460 cells assessed as cell growth at 0.01 uM incubated for 48 hrs by sulforhodamine B assay relative to control; details: NCI-H460, 48 h, read-out: Activity
MDA-MB-231 = test: Growth inhibition of human MDA-MB-231 cells assessed as cell growth at 1 uM incubated for 48 hrs by sulforhodamine B assay relative to control; details: MDA-MB-231, 48 h, read-out: Activity
A549 [4] = test: Growth inhibition of human A549/ATCC cells assessed as cell growth at 100 uM incubated for 48 hrs by sulforhodamine B assay relative to control; details: A549, 48 h, read-out: Activity
CAKI-1 [5] = test: Growth inhibition of human Caki1 cells assessed as cell growth at 1 uM incubated for 48 hrs by sulforhodamine B assay relative to control; details: CAKI-1, 48 h, read-out: Activity
SK-MEL-28 = test: Growth inhibition of human SK-MEL-28 cells assessed as cell growth at 10 uM incubated for 48 hrs by sulforhodamine B assay relative to control; details: SK-MEL-28, 48 h, read-out: Activity
UACC-257 = test: Growth inhibition of human UACC257 cells assessed as cell growth at 1 uM incubated for 48 hrs by sulforhodamine B assay relative to control; details: UACC-257, 48 h, read-out: Activity
SW-620 = test: Growth inhibition of human SW620 cells assessed as cell growth at 0.1 uM incubated for 48 hrs by sulforhodamine B assay relative to control; details: SW-620, 48 h, read-out: Activity
Hs-578T = test: Growth inhibition of human Hs 578T cells assessed as cell growth at 10 uM incubated for 48 hrs by sulforhodamine B assay relative to control; details: read-out: Activity
UACC-62 = test: Growth inhibition of human UACC62 cells assessed as cell growth at 0.01 uM incubated for 48 hrs by sulforhodamine B assay relative to control; details: UACC-62, 48 h, read-out: Activity
SN12C = test: Growth inhibition of human SN12C cells assessed as cell growth at 100 uM incubated for 48 hrs by sulforhodamine B assay relative to control; details: read-out: Activity
A549 [6] = test: Growth inhibition of human A549/ATCC cells assessed as cell growth at 10 uM incubated for 48 hrs by sulforhodamine B assay relative to control; details: A549, 48 h, read-out: Activity
MOLT-4 [7] = test: Growth inhibition of human MOLT4 cells assessed as cell growth at 0.01 uM incubated for 48 hrs by sulforhodamine B assay relative to control; details: MOLT-4, 48 h, read-out: Activity
NCI/ADR-RES [8] = test: Growth inhibition of human NCI/ADR-RES cells assessed as cell growth at 100 uM incubated for 48 hrs by sulforhodamine B assay relative to control; details: read-out: Activity
TK-10 = test: Growth inhibition of human TK10 cells assessed as cell growth at 100 uM incubated for 48 hrs by sulforhodamine B assay relative to control; details: TK-10, 48 h, read-out: Activity
UO-31 = test: Growth inhibition of human UO31 cells assessed as cell growth at 1 uM incubated for 48 hrs by sulforhodamine B assay relative to control; details: UO-31, 48 h, read-out: Activity
A549 [9] = test: Growth inhibition of human A549/ATCC cells assessed as cell growth at 0.03 uM incubated for 48 hrs by sulforhodamine B assay relative to control; details: A549, 48 h, read-out: Activity
SNB-19 = test: Growth inhibition of human SNB19 cells assessed as cell growth at 3 uM incubated for 48 hrs by sulforhodamine B assay relative to control; details: SNB-19, 48 h, read-out: Activity
MOLT-4 [10] = test: Growth inhibition of human MOLT4 cells assessed as cell growth at 0.03 uM incubated for 48 hrs by sulforhodamine B assay relative to control; details: MOLT-4, 48 h, read-out: Activity
CAKI-1 [11] = test: Growth inhibition of human Caki1 cells assessed as cell growth at 3 uM incubated for 48 hrs by sulforhodamine B assay relative to control; details: CAKI-1, 48 h, read-out: Activity
NCI-H460 [12] = test: Growth inhibition of human NCI-H460 cells assessed as cell growth at 30 uM incubated for 48 hrs by sulforhodamine B assay relative to control; details: NCI-H460, 48 h, read-out: Activity
IGROV-1 [13] = test: Growth inhibition of human IGROV1 cells assessed as cell growth at 3 uM incubated for 48 hrs by sulforhodamine B assay relative to control; details: IGROV-1, 48 h, read-out: Activity
NCI/ADR-RES [14] = test: Growth inhibition of human NCI/ADR-RES cells assessed as cell growth at 30 uM incubated for 48 hrs by sulforhodamine B assay relative to control; details: read-out: Activity
HOP-92 [15] = test: Growth inhibition of human HOP92 cells assessed as cell growth at 0.003 uM incubated for 48 hrs by sulforhodamine B assay relative to control; details: HOP-92, 48 h, read-out: Activity
CCRF-CEM = test: Growth inhibition of human CCRF-CEM cells assessed as cell growth at 3 uM incubated for 48 hrs by sulforhodamine B assay relative to control; details: read-out: Activity
HT-29 [16] = test: Growth inhibition of human HT-29 cells assessed as cell growth at 30 uM incubated for 48 hrs by sulforhodamine B assay relative to control; details: HT-29, 48 h, read-out: Activity
IGROV-1 [17] = test: Growth inhibition of human IGROV1 cells assessed as cell growth at 30 uM incubated for 48 hrs by sulforhodamine B assay relative to control; details: IGROV-1, 48 h, read-out: Activity
OVCAR-3 = test: Growth inhibition of human OVCAR3 cells assessed as cell growth at 0.03 uM incubated for 48 hrs by sulforhodamine B assay relative to control; details: OVCAR-3, 48 h, read-out: Activity
KM12 = test: Growth inhibition of human KM12 cells assessed as cell growth at 30 uM incubated for 48 hrs by sulforhodamine B assay relative to control; details: KM12, 48 h, read-out: Activity
HCT-116 = test: Growth inhibition of human HCT116 cells assessed as cell growth at 0.003 uM incubated for 48 hrs by sulforhodamine B assay relative to control; details: HCT-116, 48 h, read-out: Activity
NCI-H23 [18] = test: Growth inhibition of human NCI-H23 cells assessed as cell growth at 0.03 uM incubated for 48 hrs by sulforhodamine B assay relative to control; details: NCI-H23, 48 h, read-out: Activity
SK-MEL-5 = test: Growth inhibition of human SK-MEL-5 cells assessed as cell growth at 0.003 uM incubated for 48 hrs by sulforhodamine B assay relative to control; details: SK-MEL-5, 48 h, read-out: Activity
NCI-H23 [19] = test: Growth inhibition of human NCI-H23 cells assessed as cell growth at 0.3 uM incubated for 48 hrs by sulforhodamine B assay relative to control; details: NCI-H23, 48 h, read-out: Activity
U-251 = test: Growth inhibition of human U251 cells assessed as cell growth at 0.3 uM incubated for 48 hrs by sulforhodamine B assay relative to control; details: U-251, 48 h, read-out: Activity

| Structure (SMILES) | growth at 100 µM (HT-29 [1]) | growth at 1 µM (HOP-92 [2]) | growth at 0.01 µM (NCI-H460 [3]) | growth at 1 µM (MDA-MB-231) | growth at 100 µM (A549 [4]) | growth at 1 µM (CAKI-1 [5]) | growth at 10 µM (SK-MEL-28) | growth at 1 µM (UACC-257) | growth at 0.1 µM (SW-620) | growth at 10 µM (Hs-578T) | growth at 0.01 µM (UACC-62) | growth at 100 µM (SN12C) | growth at 10 µM (A549 [6]) | growth at 0.01 µM (MOLT-4 [7]) | growth at 100 µM (NCI/ADR-RES [8]) | growth at 100 µM (TK-10) | growth at 1 µM (UO-31) | growth at 0.03 µM (A549 [9]) | growth at 3 µM (SNB-19) | growth at 0.03 µM (MOLT-4 [10]) | further results |
| --- | --- | --- | --- | --- | --- | --- | --- | --- | --- | --- | --- | --- | --- | --- | --- | --- | --- | --- | --- | --- | --- |
| COc1cc2cc(Oc3ccc(NC(=O)Nc4cc(C(F)(F)F)cc(C(F)(F)F)c4)cc3)c(C)nc2cc1OC | -90% | 54% | 105% | 55% | -85% | 63% | -61% | 107% | 100% | -19% | 90% | -74% | -31% | 104% | -45% | -95% | 19% | – | – | – | – |
| Cc1nc2cc(O)c(O)cc2cc1Oc1ccc(NC(=O)Nc2ccc(Cl)c(Cl)c2)cc1 | – | – | – | – | – | – | – | – | – | – | – | – | – | – | – | – | – | 98% | 96% | 111% | growth at 3 µM (CAKI-1 [11]): 62%; growth at 30 µM (NCI-H460 [12]): -44%; growth at 3 µM (IGROV-1 [13]): 95%; growth at 30 µM (NCI/ADR-RES [14]): 3%; growth at 0.003 µM (HOP-92 [15]): 84%; growth at 3 µM (CCRF-CEM): 76%; growth at 30 µM (HT-29 [16]): 13%; growth at 30 µM (IGROV-1 [17]): 17%; growth at 0.03 µM (OVCAR-3): 107%; growth at 30 µM (KM12): -1%; growth at 0.003 µM (HCT-116): 93%; growth at 0.03 µM (NCI-H23 [18]): 92%; growth at 0.003 µM (SK-MEL-5): 98%; growth at 0.3 µM (NCI-H23 [19]): 94%; growth at 0.3 µM (U-251): 87% |
| COc1cc2cc(Oc3ccc(NC(=O)Nc4ccc(Cl)c(Cl)c4)cc3)c(C)nc2cc1OC | -100% | 91% | 105% | 77% | -100% | 83% | 16% | 92% | 101% | -2% | 94% | -41% | -9% | 108% | -46% | -76% | 100% | – | – | – | – |
| COc1cc2cc(Oc3ccc(NC(=O)Nc4ccc(Cl)c(C(F)(F)F)c4)cc3)c(C)nc2cc1OC | – | – | – | – | – | – | – | – | – | – | – | – | – | – | – | – | – | 100% | 24% | 96% | growth at 3 µM (CAKI-1 [11]): -11%; growth at 30 µM (NCI-H460 [12]): -62%; growth at 3 µM (IGROV-1 [13]): 39%; growth at 30 µM (NCI/ADR-RES [14]): -39%; growth at 0.003 µM (HOP-92 [15]): 92%; growth at 3 µM (CCRF-CEM): -2%; growth at 30 µM (HT-29 [16]): -82%; growth at 30 µM (IGROV-1 [17]): -42%; growth at 0.03 µM (OVCAR-3): 91%; growth at 30 µM (KM12): -84%; growth at 0.003 µM (HCT-116): 100%; growth at 0.03 µM (NCI-H23 [18]): 93%; growth at 0.003 µM (SK-MEL-5): 100%; growth at 0.3 µM (NCI-H23 [19]): 92%; growth at 0.3 µM (U-251): 94% |
